Measurements from US20150315188A1, “COMPOUNDS AND METHODS FOR TREATMENT OF HYPERTENSION” (MEDIVATION TECHNOLOGIES, INC., priority 2012, published 2015).

Legend:
Set-up in all cases: purchased Milipore (Millipore)
[1] = target: T1, Human adrenergic α2B receptor (Homo sapiens, UniProt P18089); experiment: Radioligand binding, adrenergic α2B (Protocol Group B); conditions: Protocol Group B; for Percentage inhibition of ligand binding, Adrenergic α2B (10 nM) / inhibition at 0.01 µM: 10 nM compound; for Percentage inhibition of ligand binding, Adrenergic α2B (10 nM): 0.01 µM; for Percentage inhibition of ligand binding, Adrenergic α2B (30 nM) / inhibition at 0.03 µM: 30 nM compound; for Percentage inhibition of ligand binding, Adrenergic α2B (30 nM): 0.03 µM; for Percentage inhibition of ligand binding, Adrenergic α2B (0.1 μM): 0.1 μM compound; for inhibition at 0.01 µM: read-out: Percentage inhibition of ligand binding, Adrenergic α2B (10 nM); for inhibition at 0.03 µM: read-out: Percentage inhibition of ligand binding, Adrenergic α2B (30 nM)
T1 sequence (P18089 1-450): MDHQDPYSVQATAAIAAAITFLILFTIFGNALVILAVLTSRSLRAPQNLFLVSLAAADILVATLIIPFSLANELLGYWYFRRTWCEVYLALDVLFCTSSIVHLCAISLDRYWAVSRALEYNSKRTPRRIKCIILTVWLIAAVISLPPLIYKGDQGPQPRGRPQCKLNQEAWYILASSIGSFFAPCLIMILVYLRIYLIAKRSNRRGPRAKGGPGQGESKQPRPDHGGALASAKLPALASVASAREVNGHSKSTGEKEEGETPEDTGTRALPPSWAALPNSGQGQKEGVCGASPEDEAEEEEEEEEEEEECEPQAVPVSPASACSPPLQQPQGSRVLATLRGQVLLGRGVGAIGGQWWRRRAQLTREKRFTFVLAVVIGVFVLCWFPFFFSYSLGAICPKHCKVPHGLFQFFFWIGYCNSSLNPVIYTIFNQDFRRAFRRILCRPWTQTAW
Procedure: To evaluate the activity of compounds in radioligand binding assays, Human adrenergic α2B receptor obtained from recombinant cell membrane from Milipore. Binding experiments were carried out in Tris-HCl buffer (50 mM Tris-HCl buffer, pH 7.4, 5 mM Mgcl2, 1 mM Cacl2, 0.2% BSA) as recommended by Milipore. […] Non-specific binding was estimated in the presence of 10 μM Rauwolscine. […] Compounds were screened at various concentrations, using 1% DMSO as vehicle. Biochemical assay results are presented as the percent Inhibition of specific binding in Table B1b, or estimated Ki values in Table B1c.

[2] = target: T2, Human adrenergic α2A receptor (Homo sapiens, UniProt P08913); experiment: Radioligand binding, adrenergic α2A (Protocol Group B); conditions: Protocol Group B; for Percentage inhibition of ligand binding, Adrenergic α2A (0.1 μM) / inhibition at 0.1 µM: 0.1 μM compound; for Percentage inhibition of ligand binding, Adrenergic α2A (0.3 μM) / inhibition at 0.3 µM: 0.3 μM compound; for inhibition at 0.1 µM: read-out: Percentage inhibition of ligand binding, Adrenergic α2A (0.1 μM); for inhibition at 0.3 µM: read-out: Percentage inhibition of ligand binding, Adrenergic α2A (0.3 μM)
T2 sequence (P08913 1-465): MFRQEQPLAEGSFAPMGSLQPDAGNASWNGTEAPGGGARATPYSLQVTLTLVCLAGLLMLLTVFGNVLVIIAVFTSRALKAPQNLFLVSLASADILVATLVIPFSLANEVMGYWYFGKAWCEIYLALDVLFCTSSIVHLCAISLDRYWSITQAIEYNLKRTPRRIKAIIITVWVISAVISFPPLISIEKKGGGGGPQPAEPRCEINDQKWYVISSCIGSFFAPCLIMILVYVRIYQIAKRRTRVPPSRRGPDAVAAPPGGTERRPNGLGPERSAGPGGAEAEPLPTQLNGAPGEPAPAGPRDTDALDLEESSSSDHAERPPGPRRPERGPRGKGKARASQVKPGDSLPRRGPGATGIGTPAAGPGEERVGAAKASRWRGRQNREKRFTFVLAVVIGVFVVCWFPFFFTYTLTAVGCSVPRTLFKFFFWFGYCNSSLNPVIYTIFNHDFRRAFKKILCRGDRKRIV
Procedure: To evaluate the activity of compounds in radioligand binding assays, Human adrenergic α2A receptor obtained from recombinant cell membrane from Milipore. Binding experiments were carried out in Tris-HCl buffer (50 mM Tris-HCl buffer, pH 7.4, 5 mM Mgcl2, 1 mM Cacl2, 0.2% BSA) as recommended by Milipore. Compounds were incubated with 2 nM [^3H]MK-912 for 60 min at 25° C. Non-specific binding was estimated in the presence of 10 μM Rauwolscine. Receptor proteins were harvested on 0.33% PEI(poly-ethylenemine) soaked GFC filter mat, the specifically bound [^3H]MK-912 were counted to determine total binding. Compounds were screened at various concentrations, using 1% DMSO as vehicle. percent inhibition of specific binding was determined. Biochemical assay results are presented as the percent Inhibition of specific binding in Table B1b, or estimated Ki values in Table B1c.

[3] = target: T3, Human adrenergic α1B receptor (Homo sapiens, UniProt P35368); experiment: Radioligand binding, adrenergic α1B (Protocol Group B); conditions: Protocol Group B; for Percentage inhibition of ligand binding, Adrenergic α1B (0.1 μM) / inhibition at 0.1 µM: 0.1 μM compound; for Percentage inhibition of ligand binding, Adrenergic α1B (0.3 μM) / inhibition at 0.3 µM: 0.3 μM compound; for inhibition at 0.1 µM: read-out: Percentage inhibition of ligand binding, Adrenergic α1B (0.1 μM); for inhibition at 0.3 µM: read-out: Percentage inhibition of ligand binding, Adrenergic α1B (0.3 μM)
T3 sequence (P35368 1-520): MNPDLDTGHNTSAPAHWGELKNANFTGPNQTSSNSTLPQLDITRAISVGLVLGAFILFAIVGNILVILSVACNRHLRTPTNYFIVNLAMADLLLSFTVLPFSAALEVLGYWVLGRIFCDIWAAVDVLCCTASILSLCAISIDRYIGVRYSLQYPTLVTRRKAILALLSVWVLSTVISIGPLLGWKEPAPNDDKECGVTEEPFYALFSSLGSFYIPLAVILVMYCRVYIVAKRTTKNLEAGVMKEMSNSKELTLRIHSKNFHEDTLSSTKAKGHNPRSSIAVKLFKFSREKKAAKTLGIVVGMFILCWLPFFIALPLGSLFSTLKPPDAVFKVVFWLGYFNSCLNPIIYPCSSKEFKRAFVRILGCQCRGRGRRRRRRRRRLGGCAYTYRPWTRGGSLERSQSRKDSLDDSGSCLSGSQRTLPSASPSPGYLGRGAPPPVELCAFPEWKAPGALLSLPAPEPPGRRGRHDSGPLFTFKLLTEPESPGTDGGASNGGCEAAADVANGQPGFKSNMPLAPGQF
Procedure: To evaluate the activity of compounds in radioligand binding assays, Human adrenergic α1B receptor obtained from recombinant cell membrane from Milipore. Binding experiments were carried out in Tris-HCl buffer (50 mM Tris-HCl buffer, pH 7.4, 10 mM Mgcl2, 1 mM EDTA) as recommended by Milipore. Compounds were incubated with 0.3 nM [^3H]Prazosin for 60 min at 25° C. Non-specific binding was estimated in the presence of 10 μM prazosin. Receptor proteins were harvested on 0.33% PEI(poly-ethylenemine) soaked GFC filter mat, the specifically bound [^3H]Prazosin were counted to determine total binding. Compounds were screened at various concentrations, using 1% DMSO as vehicle. percent inhibition of specific binding was determined. Biochemical assay results are presented as the percent Inhibition of specific binding in Table B1b, or estimated Ki values in Table B1c.

Row | Percentage inhibition of ligand binding, Adrenergic α2B (10 nM) [1] [%] | Percentage inhibition of ligand binding, Adrenergic α2B (30 nM) [1] [%] | Percentage inhibition of ligand binding, Adrenergic α2A (0.1 μM) [2] [%] | Percentage inhibition of ligand binding, Adrenergic α2A (0.3 μM) [2] [%] | Percentage inhibition of ligand binding, Adrenergic α1B (0.1 μM) [3] [%] | Percentage inhibition of ligand binding, Adrenergic α1B (0.3 μM) [3] [%] | Percentage inhibition of ligand binding, Adrenergic α2B (0.1 μM) [1] [%] | inhibition at 0.01 µM [1] [%] | inhibition at 0.03 µM [1] [%] | inhibition at 0.1 µM [2] [%] | inhibition at 0.3 µM [2] [%] | inhibition at 0.1 µM [3] [%] | inhibition at 0.3 µM [3] [%] | Structure (SMILES)
1 | −1 | 8 | 0 | 2 | −7 | 9 |  |  |  |  |  |  |  | OC(Cn1c2c(c3cc(Cl)cc(F)c31)C1CCCN1CC2)c1ccncc1 (single isomer, unassigned) [135d]
2 |  |  |  |  |  |  |  | -7 | -5 | -14 | -17 | -12 | -3 | CC(O)(Cn1c2c(c3cc(C(F)(F)F)ccc31)CN1CCCC1C2)c1cccnc1 (stereo not drawn) [85b]
3 | −3 | −4 | 0 | 5 | −16 | −8 | −5 |  |  |  |  |  |  | CC(O)(Cn1c2c(c3cc(Cl)cc(F)c31)C1CCCN1CC2)c1cccnc1 (single isomer, unassigned) [53d]
4 | 4 |  | 12 | 18 | 1 |  |  |  | 10 |  |  |  | 12 | OC(Cn1c2c(c3cc(Cl)cc(F)c31)C1CCCN1CC2)c1ccncc1 (single isomer, unassigned) [135c]
5 |  | 30 |  | 19 | 7 | 32 |  | 12 |  | 3 |  |  |  | Cc1cc(F)cc2c3c(n(CC(C)(O)c4ccncc4)c12)CCN1CCCC31 (single isomer, unassigned) [77a]
6 | 15 | 38 | 12 | 26 | 15 | 36 | 62 |  |  |  |  |  |  | Cc1ccc2c(c1)c1c(n2CC(C)(O)c2ccc(N(C)C)nc2)CCN(C)C1 (single isomer, unassigned) [39a]
7 |  | 5 | 1 |  | 9 |  |  |  |  |  |  |  |  | OC(Cn1c2c(c3cc(Cl)ccc31)C1CCCN1CC2)c1ccncc1 (single isomer, unassigned) [143c]
8 | 12 | 21 | 20 | 14 | 18 | 22 | 48 |  |  |  |  |  |  | Cc1ccc2c(c1)c1c(n2CC(OC(N)=O)c2ccncc2)CCN(C)C1 (single isomer, unassigned) [8a]
9 |  | 8 | 4 |  | 8 |  |  |  |  |  |  |  |  | Cc1ccc2c(c1)c1c(n2CC(C)(O)c2ccc(F)cc2)CN2CCC1C2 (single isomer, unassigned) [134c]
10 |  | 3 | 0 |  | 1 |  |  |  |  |  |  |  |  | CN1CCc2c(c3cc(CCO)ccc3n2CC(C)(O)c2cccnc2)C1 (single isomer, unassigned) [139b]
11 |  |  |  |  |  |  |  | 1 | 21 | -7 | -9 | -1 | 9 | Cc1ccc2c(c1)c1c(n2CC(O)c2ccc(C(=O)N3CCCC3)nc2)CCN(C)C1 (stereo not drawn) [compound 96, [5-[2-(2,8-dimethyl-3,4-dihydro-1H-pyrido[4,3-b]indol-5-yl)-1-hydroxy-ethyl]-2-pyridyl]-pyrrolidin-1-yl-methanone]
12 | −1 | −14 | 8 |  | 16 |  | 1 |  |  |  | 9 |  | 9 | Cc1ccc2c(c1)c1c(n2CC(C)(O)c2cccnc2)CCN(C)C1CO (single isomer, unassigned) [16a]

Row | Structure (SMILES) | Percentage inhibition of ligand binding, Adrenergic α2B (10 nM) [1] [%] | Percentage inhibition of ligand binding, Adrenergic α2B (30 nM) [1] [%] | Percentage inhibition of ligand binding, Adrenergic α2A (0.1 μM) [2] [%] | Percentage inhibition of ligand binding, Adrenergic α2A (0.3 μM) [2] [%] | Percentage inhibition of ligand binding, Adrenergic α1B (0.1 μM) [3] [%] | Percentage inhibition of ligand binding, Adrenergic α1B (0.3 μM) [3] [%] | Percentage inhibition of ligand binding, Adrenergic α2B (0.1 μM) [1] [%] | inhibition at 0.01 µM [1] [%] | inhibition at 0.03 µM [1] [%] | inhibition at 0.1 µM [2] [%] | inhibition at 0.3 µM [2] [%] | inhibition at 0.1 µM [3] [%] | inhibition at 0.3 µM [3] [%]
13 | Cc1ccc2c(c1)c1c(n2CC(C)(O)c2ccc(F)cc2)CC2CCC1N2C (single isomer, unassigned) [102a] | 2 | 13 | −8 | 5 | 5 | 22 | 38 |  |  |  |  |  | 
14 | Cc1ccc2c(c1)c1c(n2CC(C)(O)c2cccnc2)CC2CCC1N2C (single isomer, unassigned) [101d] | −2 | −3 | −10 | 3 | 4 | 8 | 9 |  |  |  |  |  | 
